The structures appear in SMILES notation.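 Cells were grown in 96-well plates and exposed to each compound for 48 hours at five concentrations; endpoints were interpolated linearly between bracketing concentrations, or set to the highest concentration if not reached. GI50: concentration for 50% inhibition of growth.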 Calls of active or inactive are those of the source. Cut-off read from the data, not from the text of the source: active = GI50 up to about 1.1 µM and inactive = higher.

Test systems include NCI-H522; UACC-62; IGROV-1; SK-OV-3; HCT-15; NCI-H226; ACHN; SNB-75; K562; Malme-3M; RPMI-8226; MDA-N; A549; LOX IMVI; SNB-19; MDA-MB-231; SW-620; A498; BT-549.
What all share (assay): NCI-60 cell line screen, 48 h

`O=C1OC[C@@H]2Cc3c([nH]c4ccccc34)[C@@H](c3ccc(O)cc3)N12`: the GI50 is 29.3 µM (inactive) in the test with NCI-H522; 29.9 µM (inactive) in the test with UACC-62; 24.8 µM (inactive) in the test with IGROV-1; > 56.8 µM (inactive) with SK-OV-3; 37.8 µM in the test with HCT-15; 29 µM (inactive) in the test with NCI-H226. Besides, the GI50 with ACHN is 23.7 µM (inactive); in the test with SNB-75, 17 µM (inactive); with K562, 32.1 µM (inactive); in the test with Malme-3M, 27.2 µM (inactive); in the test with RPMI-8226, 35.8 µM (inactive); with MDA-N, 33 µM (inactive). Also, the GI50 with A549 is 26.8 µM (inactive); with LOX IMVI, 21 µM (inactive); with SNB-19, 54.2 µM (inactive); with MDA-MB-231, 29.6 µM (inactive); with SW-620, 54.1 µM (inactive); in the test with A498, 41.7 µM (inactive).
`CCCCCCCCCCCCCCCCCc1nc(C#N)c(N)o1`: the GI50 in the test with UACC-62 is > 100 µM (inactive); in the test on IGROV-1 it was 12.1 µM (inactive); in the test with SK-OV-3, > 100 µM (inactive); with HCT-15, 86.9 µM; in the test on ACHN, 96.6 µM (inactive); in the test with SNB-75 it was 21.4 µM (inactive). The GI50 in the test with K562 was 22.7 µM (inactive); in the test with RPMI-8226, 5.27 µM (inactive); in the test with MDA-N, > 100 µM (inactive); with A549, > 100 µM (inactive); in the test on LOX IMVI, 54.3 µM (inactive); in the test with SNB-19, 73.8 µM (inactive). In addition, the GI50 was 21 µM (inactive) with MDA-MB-231, > 100 µM (inactive) in the test with SW-620 and > 100 µM (inactive) in the test with A498.
Turning to `CN(C)C(=S)N=C(Nc1ccccc1)Nc1ccccc1`, the GI50 with NCI-H522 was > 100 µM (inactive); with UACC-62, > 100 µM (inactive); in the test on IGROV-1, > 100 µM (inactive); in the test on SK-OV-3 it was > 100 µM (inactive); in the test with HCT-15, above 100 µM; in the test on NCI-H226, > 100 µM (inactive). The GI50 with ACHN was > 100 µM (inactive); with SNB-75, 91 µM (inactive); with K562 it was > 100 µM (inactive); with Malme-3M, > 100 µM (inactive); with RPMI-8226 it was > 100 µM (inactive); in the test with A549 it was > 100 µM (inactive). For the same molecule, the GI50 in the test with LOX IMVI, in the test on SNB-19, with SW-620 and with A498 was > 100 µM (inactive) each time.
As to `O=C(O)C1CC2C3CCC2C1C3=O` (stereo unspecified), the GI50 in the test on NCI-H522 was > 100 µM (inactive); with UACC-62, > 100 µM (inactive); in the test on IGROV-1, > 100 µM (inactive); in the test on SK-OV-3, > 100 µM (inactive); in the test with HCT-15, above 100 µM; in the test on NCI-H226 it was > 100 µM (inactive). Further, the GI50 in the test on ACHN, in the test with SNB-75, in the test with K562, in the test with Malme-3M, in the test on MDA-N and in the test with A549 was > 100 µM (inactive) each time. Besides, the GI50 in the test with LOX IMVI, in the test on SNB-19, with MDA-MB-231, in the test with SW-620 and in the test with A498 was > 100 µM (inactive) throughout.
Take `Cc1ccc2c(c1)CC1(C2)Cc2ccc(C)cc2C1=O` (stereo unspecified): the GI50 in the test with NCI-H522 is 19.9 µM (inactive); with IGROV-1, 36 µM (inactive); in the test on SK-OV-3, 59.3 µM (inactive); in the test on HCT-15 it was 15.6 µM; with NCI-H226, 11.5 µM (inactive); in the test on ACHN, 27.7 µM (inactive). Moreover, the GI50 is 18.2 µM (inactive) in the test with SNB-75; 22.8 µM (inactive) in the test with K562; 12.5 µM (inactive) in the test on Malme-3M; 22.3 µM (inactive) in the test with RPMI-8226; 7.35 µM (inactive) in the test on MDA-N; 33.3 µM (inactive) in the test with A549. Further, the GI50 in the test with LOX IMVI was 20.1 µM (inactive); with SNB-19 it was 61.4 µM (inactive); in the test on MDA-MB-231 it was 21.5 µM (inactive); in the test with SW-620, 30.6 µM (inactive); in the test with A498 it was 36.9 µM (inactive).
For the molecule `C/N=C(\Nc1cccc(C(F)(F)F)c1)SCc1ccc(N=C=S)cc1`, the GI50 with NCI-H522 was 10.4 µM (inactive); with UACC-62 it was 11.8 µM (inactive); with IGROV-1, 16.4 µM (inactive); in the test on SK-OV-3 it was 20.2 µM (inactive); in the test on HCT-15 it was 7.14 µM; in the test with NCI-H226 it was 19.8 µM (inactive). For the same molecule, the GI50 in the test on ACHN is 15.2 µM (inactive); with SNB-75, 14.2 µM (inactive); with K562, 20 µM (inactive); in the test on Malme-3M it was 14.7 µM (inactive); in the test on RPMI-8226, 5.92 µM (inactive); in the test on MDA-N it was 14.8 µM (inactive). In addition, the GI50 with A549 is 18.1 µM (inactive); in the test with LOX IMVI, 4.66 µM (inactive); with SNB-19, 14.9 µM (inactive); with MDA-MB-231, 11.2 µM (inactive); in the test on SW-620, 20.2 µM (inactive); with A498 it was 19.9 µM (inactive).
Take `COC(=O)[C@]12CC[C@H]3CN(C(=O)OCc4ccccc4)[C@H]([C@H]31)[C@H](c1ccco1)N2`: the GI50 in the test on NCI-H522 was 14.1 µM (inactive); in the test with UACC-62, 23.7 µM (inactive); in the test on IGROV-1 it was 60.4 µM (inactive); in the test with SK-OV-3, > 100 µM (inactive); in the test on HCT-15 it was 23.9 µM; in the test on NCI-H226, 69.7 µM (inactive). Besides, the GI50 with ACHN is 43.5 µM (inactive); with K562, 30.4 µM (inactive); in the test with Malme-3M, 23.3 µM (inactive); in the test on RPMI-8226, 27.4 µM (inactive); in the test with MDA-N, 30.8 µM (inactive); in the test on A549, 37.2 µM (inactive). The GI50 in the test on LOX IMVI is 53.2 µM (inactive); with SNB-19, > 100 µM (inactive); in the test on MDA-MB-231, 82 µM (inactive); with SW-620, > 100 µM (inactive); with A498, 0.0226 µM (active).
Take `FC(F)(F)C1(C(F)(F)F)C2CCC3(CC(F)(F)C(F)(F)S3)C1C2` (stereo unspecified): the GI50 is 56.2 µM (inactive) in the test on NCI-H522; > 100 µM (inactive) in the test with UACC-62; 87.7 µM (inactive) in the test with IGROV-1; > 100 µM (inactive) in the test on SK-OV-3; 62.8 µM in the test with HCT-15; 64.7 µM (inactive) with NCI-H226. In addition, the GI50 is 37.8 µM (inactive) with ACHN; 61.9 µM (inactive) in the test with SNB-75; 36 µM (inactive) in the test with K562; 34 µM (inactive) in the test with Malme-3M; 28.2 µM (inactive) in the test on RPMI-8226; > 100 µM (inactive) in the test with MDA-N. Further, the GI50 with A549 is 38.9 µM (inactive); with LOX IMVI, 25.8 µM (inactive); with SNB-19 it was > 100 µM (inactive); in the test with MDA-MB-231, > 100 µM (inactive); in the test on SW-620 it was > 100 µM (inactive); in the test with A498, 57 µM (inactive).
For the molecule `CCC(=O)C1(N2CCOCC2)CCN(CCCC(=O)c2ccc(F)cc2)CC1`, the GI50 in the test with NCI-H522 was > 100 µM (inactive); in the test with UACC-62, > 100 µM (inactive); in the test with IGROV-1 it was > 100 µM (inactive); in the test on SK-OV-3 it was > 100 µM (inactive); with HCT-15, above 100 µM; with NCI-H226 it was > 100 µM (inactive). For the same molecule, the GI50 in the test with ACHN, in the test on SNB-75, in the test on K562, with Malme-3M, with RPMI-8226 and in the test with MDA-N was > 100 µM (inactive) in each case. Further, the GI50 in the test on A549, in the test on LOX IMVI, in the test on SNB-19, in the test on MDA-MB-231, with SW-620 and in the test with A498 was > 100 µM (inactive) throughout.
For the molecule `O=C1/C(=N/N=C(c2ccccc2)c2ccccc2)c2ccccc2-c2ccccc21`, the GI50 in the test on NCI-H522 was 54.8 µM (inactive); in the test with UACC-62, 55.2 µM (inactive); with IGROV-1, 73.1 µM (inactive); in the test with SK-OV-3, > 100 µM (inactive); in the test with HCT-15 it was 37.8 µM; with NCI-H226, 38.5 µM (inactive). Moreover, the GI50 is 65.9 µM (inactive) in the test with ACHN; > 100 µM (inactive) in the test on SNB-75; > 100 µM (inactive) with K562; 78.5 µM (inactive) with Malme-3M; 65 µM (inactive) in the test with BT-549; > 100 µM (inactive) with A549. Moreover, the GI50 in the test on LOX IMVI was 56.4 µM (inactive); in the test with SNB-19, > 100 µM (inactive); with MDA-MB-231, 31.6 µM (inactive); with SW-620, > 100 µM (inactive).
Take `CN(NC(=O)/C(=C\c1ccco1)NC(=O)c1ccccc1)c1cn[nH]c(=O)c1Cl`: the GI50 was 28.1 µM (inactive) in the test with NCI-H522; > 100 µM (inactive) in the test with UACC-62; 49.3 µM (inactive) in the test on IGROV-1; > 100 µM (inactive) with SK-OV-3; 57.3 µM in the test with HCT-15; 45.6 µM (inactive) with NCI-H226. Besides, the GI50 with ACHN is > 100 µM (inactive); with SNB-75, 23.4 µM (inactive); in the test on K562, 60.1 µM (inactive); in the test on Malme-3M, 39.3 µM (inactive); with RPMI-8226, 21.1 µM (inactive); in the test on A549, > 100 µM (inactive). Moreover, the GI50 in the test on LOX IMVI is 23.2 µM (inactive); in the test on SNB-19 it was 97.9 µM (inactive); in the test with MDA-MB-231 it was > 100 µM (inactive); in the test on SW-620, 45.9 µM (inactive).
As to `CN(C(=O)C1=CCCCCC1)c1ccccc1I`, the GI50 in the test with UACC-62 is 33.2 µM (inactive); in the test on IGROV-1 it was 32.8 µM (inactive); in the test with SK-OV-3 it was 43.5 µM (inactive); in the test with HCT-15, 39.6 µM; in the test on ACHN it was 59.6 µM (inactive); in the test on SNB-75, 13.5 µM (inactive). Besides, the GI50 in the test with K562 is 59.2 µM (inactive); in the test with RPMI-8226, 35.5 µM (inactive); in the test with MDA-N, 35.5 µM (inactive); in the test on A549, 62.1 µM (inactive); in the test with LOX IMVI, 28.9 µM (inactive); with SNB-19 it was 62.5 µM (inactive). Further, the GI50 was 67.8 µM (inactive) in the test with MDA-MB-231, 40.6 µM (inactive) in the test on SW-620 and 0.201 µM (active) with A498.

(Values after ChEMBL document CHEMBL1201862, “PubChem BioAssay data set” (2004).)
